# PubChem BioAssay AID1996
# Details: buffer; pH 7.4; 200.0 µM
row,Compound,solubility kinetic [µg/mL]
1,Cc1cccc(Nc2nnc(SC3CCOC3=O)s2)c1C (stereo not given),> 48.2
2,COc1ccc(/C=C2\SC(N)=NC2=O)cc1Br,5.3
3,O=C(COC(=O)c1ccc(F)cc1)NCC1COc2ccccc2O1 (stereo not given),> 51.8
4,Cc1c(Cl)cccc1NC(=O)NCc1ccccn1,38.5
5,COc1ccccc1P(=O)(c1ccccc1)c1ccccc1NC(C)=O (stereo not given),> 54.8
6,Cc1c(C)n(C)c2ccc(C(=O)NCCN3CCOCC3)cc12,> 47.3
7,CN(CC(=O)NCCc1ccccc1)Cc1ccco1,> 40.9
8,COc1ccc2c(c1)C(=O)Nc1cc(Cl)ccc1N2,15.6
9,CCOC(=O)COc1c(C(=O)OC)sc2ncccc12,35.6
10,CC(C)c1cccc(C(C)C)c1NC(=O)c1ccccc1,1.7
11,COc1ccc(/C(=N/Nc2ncnc3ccccc23)C(=O)O)cc1,> 48.3
12,NC(=O)c1ccc(NC(=O)COC(=O)C2COc3ccccc3O2)cc1 (stereo not given),> 53.5
13,CCOC(=O)c1cnc(-c2ccccc2)nc1N1CC(C)OC(C)C1 (stereo not given),32.1
14,COC(=O)c1ccccc1N=Cc1c(O)[nH]c(=S)[nH]c1=O,6.1
15,O=C(O)C1CCCCC1C(=O)NCc1ccccn1 (stereo not given),> 39.3
16,CCCC(C(=O)O)n1c(O)c(C=C2N=c3ccccc3=N2)sc1=S (stereo not given),> 54.2
17,COc1ccc(NC(=O)COC(=O)C2C3CC4OC(=O)C2C4C3)cc1 (stereo not given),> 51.8
18,COc1ccc(C(=O)C23CN4CN(CN(C4)C2)C3)cc1,> 41
19,Cc1c(F)cccc1NC(=O)c1ccc2c(c1)CCN2S(C)(=O)=O,4.4
20,COc1ccc(NC(=O)c2cc(-c3ccco3)on2)cc1OC,1.6
21,Cc1ccc(NC(=O)Nc2ccon2)cc1,> 32.6
22,Cc1ccc(F)cc1S(=O)(=O)NCc1ccc(N2CCN(C)CC2)cc1,16
23,COc1cc(CN2CCNCC2)cc(OC)c1OC.Cl,23.1
24,CC(NC(=O)C(=O)NCCc1c[nH]c2ccccc12)c1ccccc1 (stereo not given),< 0.2

row,Compound,solubility kinetic [µg/mL]
1,Cc1nc(-c2ccc(NC(=O)C3CC3)cc2)cs1,13.3
2,COc1cccc2c(=O)c3c([nH]c12)OC(C)(C)C3,> 36.8
3,CCOC(=O)c1ccc(NC(=O)C2CC(O)CN2S(=O)(=O)c2ccc(C)cc2)cc1 (stereo not given),> 64.9
4,NC(=O)CN1C(=O)C(=O)N(Cc2ccccc2Cl)C1=O,> 44.4
5,COc1cccc(/C=C2\SC(N3CCC(C)CC3)=NC2=O)c1OC,21.5
6,CCCCN(C(=O)c1cccs1)c1c(N)n(Cc2ccccc2)c(=O)[nH]c1=O,6.1
7,OC(CNCc1ccc(Cl)cc1)C(F)(F)F (stereo not given),> 38
8,O=C(NCc1ccc(F)cc1)Nc1cccc([N+](=O)[O-])c1,1
9,CC(=O)c1cccc(NC(=S)N2CCc3ccccc32)c1,3.1
10,O=C(CCC1CCN(Cc2ccccc2Cl)CC1)NC1CC1,> 48.1
11,O=C(NCCN1CCCCC1)Nc1ccccc1F,> 39.8
12,CS(=O)(=O)Nc1ccc(S(=O)(=O)N2CCCCCC2)cc1,48.3
13,COc1cccc2cc(C(=O)OCC(=O)N3CC(C)OC(C)C3)c(=O)oc12 (stereo not given),> 56.3
14,CCN1CCN(c2cc(=O)n3ccccc3n2)CC1,32
15,Cc1onc(-c2ccccc2)c1C(=O)N=C(N)c1ccc(C(F)(F)F)cc1,< 0.3
16,CCOc1ccccc1NC(=O)c1ccc2c(c1)C(=O)N(CC)C2=O,< 0.4
17,O=C(c1c(Cl)cccc1Cl)N1CCN(c2ncccn2)CC1,> 50.6
18,COc1ccc(-c2csc(NC3CCCCC3)n2)c(OC)c1,10.3
19,C=CCn1c(O)c(C(C)=Nc2cccc(C(F)(F)F)c2)c(=O)[nH]c1=O,4
20,Cc1ccc(NC(=O)C(C)N2CCc3ccccc3C2)cc1 (stereo not given),31.8
21,O=C(CSc1ccc(Cl)cc1)NC(=O)c1ccccc1,6.4
22,Cl.c1cc(CNC23CC4CC(CC(C4)C2)C3)ccn1,> 47.3
23,Cc1ccccc1CN1C(=O)c2ccccc2Sc2ccc(C(=O)O)cc21,51.1
24,CCN(CC)C(=O)COc1ccc2c3c(c(=O)oc2c1)CCCC3,48.1

row,Compound,solubility kinetic [µg/mL]
1,COCCN1CC(C(=O)NCc2ncccc2C)CCC1=O (stereo not given),> 45.8
2,Cc1ccccc1S(=O)(=O)Cc1ccc(C(=O)NC2CC2)o1,> 47.9
3,CCC(CC)C(=O)c1c[nH]c(C(=O)NCc2ccc(F)cc2)c1,1
4,CSc1ccc(S(=O)(=O)N2CCC(C(=O)NCc3ccccn3)CC2)cc1,49.9
5,CCCc1cc(C(=O)Nc2cccc(Cl)c2C)no1,16.4
6,CCOC(=O)N1CCN(C/C(Cl)=C/c2ccccc2)CC1,29.8
7,COc1ccc(S(=O)(=O)Nc2cccnc2)cc1,> 39.6
8,Cc1cc(C)nc(Nc2cccc3ccccc23)n1,18.7
9,CCCn1c(N)c(C(=O)COc2ccc(Br)cc2F)c(=O)n(C)c1=O,3.9
10,Cc1ccc(Cn2ccc(O)c(Cc3ccccc3)c2=O)cc1,< 0.7
11,O=C(CC1CCC1)Nc1cccc2c([N+](=O)[O-])cccc12,5.8
12,O=C(NCCCn1ccnc1)C(=O)Nc1ccccc1,39.5
13,O=C(NN1CCOCC1)c1ccccc1,> 30.9
14,O=C(CCC(=O)Nc1ccccc1)N/N=C/c1cccnc1,> 44.4
15,CCOC(=O)c1ccc2c(c1)N(CC#N)C(=O)C(C)(C)O2,> 43.2
16,O=[N+]([O-])c1cccc(S(=O)(=O)NCCCn2ccnc2)c1,> 46.5
17,CC1NCCC2(O)CCCCC12 (stereo not given),> 25.4
18,Cc1nn(C)c(=O)n1-c1ccccc1,> 28.4
19,Cc1nc(NS(=O)(=O)c2cccc([N+](=O)[O-])c2)sc1C(C)(C)C,5.4
20,O=C(CNC(=O)C1CCCCC1)OCC(=O)c1ccc(Br)cc1,27.6
21,Cc1cccc(C)c1OCC(=O)Nc1ccccc1C(F)(F)F,1.6
22,COc1cccc(CNC(=O)COC(=O)c2c(NC(C)=O)sc(C)c2C)c1,1.9
23,CCNC(=O)c1ccccc1-c1nc(-c2ccccc2)no1,35.4
24,N#Cc1cc([N+](=O)[O-])ccc1NCCc1ccccn1,> 40.2

row,Compound,solubility kinetic [µg/mL]
1,COc1ccc(CNCc2ccc(C)cc2)c(OC)c1.O=C(O)C(=O)O,40.5
2,CCN(Cc1ccccc1)Cc1nc(CCc2ccccc2)no1,1.4
3,Cc1ccc2oc(=O)n(Cc3ccc(OC(C)C)cc3)c2c1,1
4,O=C(c1ccc(Cl)c(S(=O)(=O)N2CCOCC2)c1)N1CCc2ccccc2C1,> 63.1
5,O=C1CN(C(=O)COC(=O)Cc2ccccc2F)c2ccccc2N1,> 51.3
6,CCSC1=C(C#N)C(c2ccc(C)o2)CC(=O)N1 (stereo not given),> 39.3
7,CC(=O)Nc1ccc(C(=S)NCC2(N(C)C)CCCCC2)cc1,21.1
8,c1csc(-c2nc(-c3ccc(-c4ccon4)s3)no2)c1,0.5
9,O=C(C1CCCC1)N1CCCC(Nc2ccc(F)cc2)C1 (stereo not given),> 43.6
10,c1ccc2nc(SCc3cn4ccccc4n3)cnc2c1,> 43.9
11,C=CCNC(=S)N1CCN(c2ncc(C(F)(F)F)cc2Cl)CC1,35.7
12,O=C(Nc1cccc(F)c1)Nc1ccc2c(c1)CCC2,< 0.3
13,O=C(Nc1cccc2ncccc12)c1ccco1,30.5
14,CN(C)C(=O)CN1C(=O)NC2(CCc3ccccc32)C1=O (stereo not given),> 43.1
15,CC(C)(C)NC(=O)C1CCC(CNc2c(N3CCCCC3)c(=O)c2=O)CC1 (stereo not given),> 56.3
16,COc1ccccc1CNS(=O)(=O)c1ccc(Cl)s1,> 47.7
17,Cc1cc(NC(=O)c2ccc(C)c(C)c2)no1,3.6
18,O=C1CNC(=S)N1CCc1ccccc1Cl,> 38.2
19,CN(C)CC/C=C1\c2cc(Cl)ccc2Sc2cc(F)c(F)cc21.Cl,21.8
20,Cc1ccccc1C(=O)OCC(=O)NCC1COc2ccccc2O1 (stereo not given),40.9
21,Cc1ccccc1N1C(=O)C2CCCN2C1=S (stereo not given),> 36.9
22,COc1cccc(/C=N/N2CCN(Cc3ccccc3)CC2)c1O,> 48.8
23,O=C(CCc1ccncc1)N1CCCC(Nc2ccc(F)c(F)c2)C1 (stereo not given),43.9
24,O=C(COc1cccnc1[N+](=O)[O-])Nc1ccc(F)cc1,11.5

row,Compound,solubility kinetic [µg/mL]
1,CC(=O)Oc1ccc(C(=O)Nc2cccnc2)cc1,> 38.4
2,Cc1cc(=O)n(CC(=O)O)c2ccccc12,> 32.6
3,CC(C)(CN1CCCC1)NS(=O)(=O)c1ccc(Cl)cc1,> 47.5
4,COc1ccc(NC(=O)c2cc(-c3ccccc3Cl)on2)cc1,< 0.4
5,COc1cccc(C(=O)Nc2cc3c4c(c2)CC(=O)N4CCC3)c1,> 48.4
6,CCC(=O)N(CCC1(C(C)C)CCOC(C)(C)C1)C(C)c1cccs1 (stereo not given),42.2
7,Cc1onc(-c2ccccc2Cl)c1C(=O)N1CCC(C(N)=O)CC1,50.7
8,Cl.Oc1ccc(CC2(N3CCCC3)CCCCC2)cc1,40.5
9,COc1ccc(OC)c(NC(=O)CS(=O)(=O)Cc2ccccc2)c1,3.1
10,Cc1ncc(CN2CCCC(C(=O)c3cccc(Cl)c3)C2)s1 (stereo not given),43.2
11,FC(F)(F)c1ccccc1NC1=NCCCS1,> 39
12,CNS(=O)(=O)c1cccc(C(=O)OCC(=O)Nc2nc(OC)cc(OC)n2)c1,15
13,CCCCCCn1c(N2CCCC2)nc2c1c(=O)[nH]c(=O)n2C,> 47.9
14,Cc1ccccc1Nc1nc(N)nc(CSc2nncn2C)n1,> 49.3
15,Cc1csc(NC(=S)NC(=O)c2ccccc2)n1,1
16,CO/N=C(/CN1CCCCC1)c1ccc(Cl)cc1,8.9
17,O=S(=O)(Cc1ccccc1Cl)NCCc1ccc(F)cc1,> 49.2
18,CC(NC(=O)CCC(=O)NC(C)c1ccccc1)c1ccccc1 (stereo not given),46.2
19,CCC(C)[C@H](NC(=O)N1CCC(Cc2ccccc2)CC1)C(=O)O (stereo not given in full),> 49.9
20,Cc1ccc(NC(=O)Cc2c(O)c3ccccc3[nH]c2=O)c(C)c1,23
21,CC1CCCCN1C(=O)CSc1nc2ncccc2[nH]1 (stereo not given),> 43.6
22,NS(=O)(=O)c1ccc(OC(=O)CNC(=O)OCc2ccccc2)cc1,34.3
23,COc1ccccc1/C=C/C(=O)OC(C)CN1CCCCC1.Cl (stereo not given),> 51
24,CCc1ccccc1N1C(=O)C2C3C=CC(CC3)C2C1=O (stereo not given),> 42.2
